Results: patent US7732467B2, “Method for reducing amyloid deposition, amyloid neurotoxicity and microgliosis” (Alzheimer's Institute of America, Inc., priority 2003, dated 2010)

Assays:
[1] = system: human glioblastoma cells transfected with APPsw; test: APP processing, Aβ1-40 production in culture medium by ELISA; format: cell-based
Description: Production of Aβ1-40 in the culture medium was measured by ELISA.

[2] = system: plasma Aβ in TgPS/APPsw mice; test: Plasma Aβ levels in TgPS/APPsw mice, human Aβ1-40 ELISA; format: in vivo, mouse; conditions: 1.5 mg/kg I.P. every day for three and one half weeks; 2 year old TgPS/APPsw mice
Description: Following this treatment, 100 μl of blood were collected from the tail vein of the animals using EDTA (4%) as an anticoagulant. Blood samples were centrifuged at 4000 g for 1 min and the plasma was collected and diluted four times before being assayed for human Aβ1-40 using a commercially available human Aβ1-40 ELISA (Biosource, CA).

[3] = system: N9 murine microglial cells; test: LPS-induced microglial activation in vitro, TNF-α production by ELISA; format: cell-based, mouse
Description: Microglial activation is determined by TNF-α production (pg/ml) measured by ELISA;
N9 murine micoglial cells are well characterized scavenger murine microglial clones derived from embryonic mouse brain. The extent of microglial activation was determined by TNF-α production (pg/ml) measured by ELISA.

[4] = system: human neuronal progenitor cells (HNPC); test: Aβ neurotoxicity, LDH release from cells treated with pre-aggregated Aβ1-40; format: cell-based; conditions: 100 nM nilvadipine along with 30 μM AgAβ, three days
Description: Neurotoxicity is assessed by measuring the amount of lactic dehydrogenase (LDH) released from cells;
HNPC cells differentiate into neurons readily upon treatment with cyclic AMP. Cyclic AMP (1 mM) (Sigma) was added to the culture medium and the HNPC cells were incubated at 37° C. for 48 hours or more under serum free conditions. […] Neurotoxicity was assessed by measuring the amount of lactic dehydrogenase (LDH; an intracellular enzyme found in all cells) released from the cells.

## COC(=O)C1=C(C#N)NC(C)=C(C(=O)OC(C)C)C1c1cccc([N+](=O)[O-])c1 (stereo not drawn) [nilvadipine, isopropyl-3-methyl-2-cyano-1,4-dihydro-6-methyl-4-(m-nitrophenyl)-3,5-pyridine-dicarboxylate]
[1]; 50 nM, 24 hours
  reduction of Aβ1-40 production: about 9%
[1]; 50 nM, 48 hours
  reduction of Aβ1-40 production: about 18%
[1]; 250 nM, 24 hours
  reduction of Aβ1-40 production: about 15%
[1]; 250 nM, 48 hours
  reduction of Aβ1-40 production: about 5%
[2]
  increase in plasma levels of Aβ compared to control animals: 42%
[3]; 50 nM nilvadipine, no LPS, N9 cells
  TNF-α production: about 40 pg/ml
[3]; 1 μg/ml LPS plus 50 nM nilvadipine, 24 hours, N9 cells (LPS alone about 820 pg/ml)
  TNF-α production: about 670 pg/ml
[3]; LPS plus 500 nM nilvadipine, 24 hours, N9 cells (LPS alone about 820 pg/ml)
  TNF-α production: about 610 pg/ml
[4]
  decrease in LDH release: about 44%
